Test system: 883617-216-R-J1-PDC complex spheroid viability
Assay: Anticancer human tumor 883617-216-R-J1-PDC patient-derived bladder carcinoma cell line growth inhibition [POLQ]
Details: for IC50: curve of first compound; for viability, T/C: stronger effect = lower value
Procedure, shortened: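 PDC + HUVEC + MSC complex spheroids; POLQ inhibitors ± partner drugs; top conc. at/near clinical Cmax, else 10 microM (SN-38 1 microM), half-log dilutions; 37 degrees C, 5% CO2.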

[1] = second compound 0.0316 µM, first compound 0.0316 µM
[2] = second compound 0.0316 µM, first compound 0.1 µM
[3] = second compound 0.0316 µM, first compound 0.316 µM
[4] = second compound 0.0316 µM, first compound 1 µM
[5] = second compound 0.0316 µM, first compound 3.16 µM
[6] = second compound 0.0316 µM, first compound 10 µM
[7] = second compound 0.1 µM, first compound 0.0316 µM
[8] = second compound 0.1 µM, first compound 0.1 µM
[9] = second compound 0.1 µM, first compound 0.316 µM
[10] = second compound 0.1 µM, first compound 1 µM
[11] = second compound 0.1 µM, first compound 3.16 µM
[12] = second compound 0.1 µM, first compound 10 µM
[13] = second compound 0.316 µM, first compound 0.0316 µM
[14] = second compound 0.316 µM, first compound 0.1 µM
[15] = second compound 0.316 µM, first compound 0.316 µM
[16] = second compound 0.316 µM, first compound 1 µM
[17] = second compound 0.316 µM, first compound 3.16 µM
[18] = second compound 0.316 µM, first compound 10 µM
[19] = second compound 1 µM, first compound 0.0316 µM
[20] = second compound 1 µM, first compound 0.1 µM
[21] = second compound 1 µM, first compound 0.316 µM
[22] = second compound 1 µM, first compound 1 µM
[23] = second compound 1 µM, first compound 3.16 µM
[24] = second compound 1 µM, first compound 10 µM
[25] = second compound 3.16 µM, first compound 0.0316 µM
[26] = second compound 3.16 µM, first compound 0.1 µM
[27] = second compound 3.16 µM, first compound 0.316 µM
[28] = second compound 3.16 µM, first compound 1 µM
[29] = second compound 3.16 µM, first compound 3.16 µM
[30] = second compound 3.16 µM, first compound 10 µM
[31] = second compound 10 µM, first compound 0.0316 µM
[32] = second compound 10 µM, first compound 0.1 µM
[33] = second compound 10 µM, first compound 0.316 µM
[34] = second compound 10 µM, first compound 1 µM
[35] = second compound 10 µM, first compound 3.16 µM
[36] = second compound 10 µM, first compound 10 µM
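Also: spheroids exposed to compounds for seven days before readout.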
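For viability, T/C in this document: 100% = DMSO vehicle control viability.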

C#Cc1c(F)ccc2cc(O)cc(-c3ncc4c(N5CC6CCC(C5)N6)nc(OCC56CCCN5CC(F)C6)nc4c3F)c12 (centres undefined) + COC1C(OC(N)=O)C(O)C(Oc2ccc3c(O)c(NC(=O)c4ccc(O)c(CC=C(C)C)c4)c(=O)oc3c2C)OC1(C)C
IC50 (second compound 0.0316 µM): > 10 µM | IC50 (second compound 0.1 µM): > 10 µM | IC50 (second compound 0.316 µM): > 10 µM | IC50 (second compound 1 µM): > 10 µM | IC50 (second compound 3.16 µM): > 10 µM | IC50 (second compound 10 µM): > 10 µM | viability, T/C [1]: 90.3% | viability, T/C [2]: 108% | viability, T/C [3]: 96.2% | viability, T/C [4]: 97.9% | viability, T/C [5]: 81.1% | viability, T/C [6]: 75% | viability, T/C [7]: 121% | viability, T/C [8]: 100% | viability, T/C [9]: 90.4% | viability, T/C [10]: 83.4% | viability, T/C [11]: 87.3% | viability, T/C [12]: 78.2% | viability, T/C [13]: 96.1% | viability, T/C [14]: 114% | viability, T/C [15]: 90% | viability, T/C [16]: 91% | viability, T/C [17]: 70.3% | viability, T/C [18]: 67% | viability, T/C [19]: 99.7% | viability, T/C [20]: 98.8% | viability, T/C [21]: 83.8% | viability, T/C [22]: 91.4% | viability, T/C [23]: 81.9% | viability, T/C [24]: 86.3% | viability, T/C [25]: 98.6% | viability, T/C [26]: 93.6% | viability, T/C [27]: 95.5% | viability, T/C [28]: 94.4% | viability, T/C [29]: 84.4% | viability, T/C [30]: 76.3% | viability, T/C [31]: 85.8% | viability, T/C [32]: 101% | viability, T/C [33]: 101% | viability, T/C [34]: 85.7% | viability, T/C [35]: 91.8% | viability, T/C [36]: 73.6%

COc1ccc([C@@H](O)c2cc(-c3ncnc4cc(N5CCOCC5)ccc34)c(F)cc2Cl)nn1 + Cc1cccc(N(C)C(=O)C2C(O)CCN2c2nc(C)cc(C(F)(F)F)c2C#N)c1
IC50 (second compound 0.0316 µM): 2.68 µM | IC50 (second compound 0.1 µM): 2.21 µM | IC50 (second compound 0.316 µM): 2.51 µM | IC50 (second compound 1 µM): 2.53 µM | IC50 (second compound 3.16 µM): 2.48 µM | IC50 (second compound 10 µM): 3.57 µM | viability, T/C [1]: 90.4% | viability, T/C [2]: 105% | viability, T/C [3]: 76% | viability, T/C [4]: 75.5% | viability, T/C [5]: 42.4% | viability, T/C [6]: 36.9% | viability, T/C [7]: 98.3% | viability, T/C [8]: 84% | viability, T/C [9]: 85.8% | viability, T/C [10]: 67.9% | viability, T/C [11]: 41% | viability, T/C [12]: 31.4% | viability, T/C [13]: 99% | viability, T/C [14]: 101% | viability, T/C [15]: 86.3% | viability, T/C [16]: 71.6% | viability, T/C [17]: 43.5% | viability, T/C [18]: 33.4% | viability, T/C [19]: 100% | viability, T/C [20]: 98.3% | viability, T/C [21]: 81.9% | viability, T/C [22]: 63.4% | viability, T/C [23]: 48.4% | viability, T/C [24]: 32.8% | viability, T/C [25]: 107% | viability, T/C [26]: 99.8% | viability, T/C [27]: 90.4% | viability, T/C [28]: 61.4% | viability, T/C [29]: 49.7% | viability, T/C [30]: 33.8% | viability, T/C [31]: 117% | viability, T/C [32]: 92.5% | viability, T/C [33]: 90.5% | viability, T/C [34]: 65% | viability, T/C [35]: 52.3% | viability, T/C [36]: 35.6%
